From patent US6040331A, “Nerve cell protective agents” (Mochida Pharmaceutical Co., Ltd., priority 1996, dated 2000)
≈ marks a conversion by molar mass, not a printed value. Structures can show the parent of a compound that is named as a salt. *1 amine or outer side, *2 acyl side, *3 side chain or, on linkers, in order; H or OH if unused. Where a SMILES comes first, the peptide text is derived from it. Bridges are numbered along the chain shown (N, C = ends). Roman numbers before positions name the chains, in order. [ ]: non-standard residue; d: D form. Actinocin(9to1) = Cc1c2oc3c(C)ccc(C(=O)[*:1])c3nc-2c(C(=O)[*:2])c(N)c1=O; NMeV = CN[C@H](C(=O)O)C(C)C; Sar = CNCC(=O)O

Columns and labels:
[1] = system: pyramidal cells in the hippocampus CA1 region; test: Effectiveness in gerbil model of delayed neuronal death (damage score, 4 min ischemia); format: in vivo; conditions: carotid arteries 5 min before ischemia, score 0-4
Method: Specifically, the cervical part of a gerbil under anesthesia by halothane inhalation was incised along the median line to expose the carotid artery on both sides, which were occuluded with clips for 4 min and thereafter brought back to patency. After suturing the incised part, the anesthetization was turned off and the animal was brought back to keeping under normal condition. Three days after loading of cerebral ischemia, the gerbil was anesthetized by administering pentobarbital, fixed by transcardiac formalin perfusion and had the brain isolated. A coronary slice including the fimbria hippocampi was prepared from the isolated brain and stained with Cresyl Violet. The pyramidal cells in the hippocampus CA1 region were examined under an optical microscope and the degree of damage was rated by the following scores: 0, no damage; 1, slight damage; 2, moderate damage; 3, significant damage; 4, total damage. Each test compound was administered through the carotid arteries 5 min before ischemia.

[2] = system: neurons isolated from the cerebrum; test: Veratrine-induced neuronal death suppressing action (MTT); format: cell-based, embryonic day 16 rats; conditions: Rattus norvegicus, Neuron; veratrine 0.35 mM; MTT after 24 h; probit method; read-out: IC50 (50% suppression of veratrine-induced neuronal death)
Method: The action of compounds to suppress the death of neurons induced by veratrine was evaluated in terms of their effectiveness in suppressing the neuronal death as induced by direct addition of veratrine. An experiment was run by a method adapted from the method of Powells et al., J. Pharmacol. Exp. Therapeutics, 255, 1117, 1987. Specifically, neurons were isolated from the cerebrum of embryonic day 16 rats in the usual manner, suspended in a MEM medium containing 10% fetal bovine serum, seeded onto a polylysine-coated culture plate at a density of 2.5×10^5 cells per square centimeter and cultivated at 37° C. in 95% air+5% CO2. Starting on the fifth day of cultivation, treatment was conducted with 10 μM of cytosine arabinoside for 2 days and the cultivation was continued until the 12th day, when a test was run as follows. The cells were treated with a buffer solution containing veratrine (0.35 mM) and a test compound, replaced in a serum-containing medium and cultivated for another 24 h. Subsequently, the number of viable cells was determined by calorimetric quantification using 3-(4,5-dimethylthiazol-2-yl)-2,5-diphenyltetrazolium bromide (MTT). The percent suppression of neuronal death by the test compound was determined by the following formula:
(§1) 100×(ODtest-ODcontrol)/(ODnormal-ODcontrol) (%)
where ODtest is the number of cells (absorbance) in the group of addition of veratrine+test compound, ODcontrol is the number of cells (absorbance) in a control group of addition of veratrine, and ODnormal is the number of cells (absorbance) in a control (normal) group without addition of veratrine.
In addition, IC50 values indicating the effectiveness in achieving 50% suppression of neuronal death were calculated by the probit method on the basis of the result from more than one concentration.

[3] = system: neurons isolated from the cerebrum; test: Naturally occurring neuronal death suppressing action (serum-free cultivation, Crystal Violet); format: cell-based, embryonic day 16 rats; conditions: for inhibition at 0.3 µg/mL / inhibition at 3 µg/mL / inhibition at 1 µg/mL: Rattus norvegicus, Neuron, 72 h, serum-free, 3 days, read-out: Suppression of Naturally Occurring Neuronal Death; for inhibition at 0.3 µg/mL: 0.3 μg/ml; for inhibition at 3 µg/mL: 3.0 μg/ml; for inhibition at 1 µg/mL: 1.0 μg/ml
Method: The action of compounds to suppress the naturally occurring death of neurons was evaluated in terms of their effectiveness in suppressing or inhibiting the naturally occurring death of neurons as induced by exposing cultured neurons to serum-free cultivation conditions. An experiment was run by a method adapted from the method of Shimojo et al., Neurosci. Lett., 151, 170, 1993. Specifically, neurons were isolated from the cerebrum of embryonic day 16 rats in the usual manner, suspended in a DMEM/F12 medium containing 1% fetal bovine serum, seeded onto a polylysine-coated culture plate at a density of 5×10^4 cells per square centimeter and cultivated at 37° C. in 95% air+5% CO2. After one day of culture, the medium was replaced with a serum-free medium containing a compound to be tested and the cultivation was continued for 3 more days. Subsequently, the cells were fixed with 1% glutaraldehyde and their number was determined by calorimetric quantification using Crystal Violet (Anal. Biochem., 182, 16-19, 1989). The percent suppression of neuronal death by the test compound was determined by the following formula:
as §1
where ODtest is the number of cells (absorbance) in the group of addition of test compound after serum removal, ODcontrol is the number of cells (absorbance) in a control group after serum removal, and ODnormal is the number of cells (absorbance) in a control (normal) group without serum removal.

Structure (SMILES): Cl.Cn1c(-c2ccccc2F)c2c3c(cccc31)C(N1CCOCC1)CC2 (stereo not drawn) [Example 240, 2-(2-fluorophenyl)-1-methyl-5-morpholino-1,3,4,5-tetrahydrobenz[cd]indole hydrochloride]
- Score of damage to hippocampus CA1 ([1]; 10 mg/kg, ischemic control 3.5 ± 0.4, mean ± standard error (Table 3-2)): 2.1 ± 0.5

Structure (SMILES): NC1CCc2c(-c3ccccc3)[nH]c3ccc([N+](=O)[O-])c1c23 (stereo not drawn) [Example 90, 5-amino-6-nitro-2-phenyl-1,3,4,5-tetrahydrobenz[cd]indole]
- IC50 [2]: 0.7 µg/mL (≈ 2.39 µM)

Structure (SMILES): Cc1ccc(-c2[nH]c3cccc4c3c2CCC4N)cc1 (stereo not drawn) [Example 99, 5-amino-2-(4-methylphenyl)-1,3,4,5-tetrahydrobenz[cd]indole]
- inhibition at 0.3 µg/mL [3]: 59%

Structure (SMILES): CC(=O)NC1CCc2c(-c3ccccc3)[nH]c3cccc1c23 (stereo not drawn) [Example 124, 5-(N-acetylamino)-2-phenyl-1,3,4,5-tetrahydrobenz[cd]indole]
- inhibition at 3 µg/mL [3]: 23%

Structure (SMILES): c1ccc(-c2[nH]c3cccc4c3c2CCC4N2CCOCC2)cc1 (stereo not drawn) [Example 148, 5-morpholino-2-phenyl-1,3,4,5-tetrahydrobenz[cd]indole]
- inhibition at 1 µg/mL [3]: 65%

Structure (SMILES): Cl.Cn1c(-c2ccccc2Cl)c2c3c(cccc31)C(N1CCOCC1)CC2 (stereo not drawn) [Example 239, 2-(2-chlorophenyl)-1-methyl-5-morpholino-1,3,4,5-tetrahydrobenz[cd]indole hydrochloride]
- IC50 [2]: 2.2 µg/mL

Structure (SMILES): COC(=O)c1ccc(-c2[nH]c3c(Cl)ccc4c3c2CCC4N)cc1 (stereo not drawn) [Example 171, 5-amino-8-chloro-2-(4-methoxycarbonylphenyl)-1,3,4,5-tetrahydrobenz[cd]indole]
- IC50 [2]: 1.9 µg/mL (≈ 5.57 µM)

Structure (SMILES): Cc1c2oc3c(C)ccc(C(=O)N[C@@H]4C(=O)N[C@H](C(C)C)C(=O)N5CCC[C@H]5C(=O)N(C)CC(=O)N(C)[C@@H](C(C)C)C(=O)O[C@@H]4C)c3nc-2c(C(=O)N[C@@H]2C(=O)N[C@H](C(C)C)C(=O)N3CCC[C@H]3C(=O)N(C)CC(=O)N(C)[C@@H](C(C)C)C(=O)O[C@@H]2C)c(N)c1=O [actinomycin D, reference compound] (I: T[dV]P[Sar][NMeV] / II: T[dV]P[Sar][NMeV]; ester I:1-I:C, II:1-II:C; linker I:N-II:N via Actinocin(9to1))
- suppression of death of neurons under the serum-free condition (in words) [3]: suppressed

Structure (SMILES): c1ccc(CNC2CCc3c(-c4ccccc4)[nH]c4cccc2c34)cc1 (stereo not drawn) [Example 153, 5-(N-benzylamino)-2-phenyl-1,3,4,5-tetrahydrobenz[cd]indole]
- inhibition at 1 µg/mL [3]: 100%

Structure (SMILES): CN(C)C1CCc2c(-c3ccccc3)[nH]c3cccc1c23 (stereo not drawn) [Example 121, 5-(N,N-dimethylamino)2-phenyl-1,3,4,5-tetrahydrobenz[cd]indole]
- inhibition at 3 µg/mL [3]: 72%

Structure (SMILES): Cc1cc2c3c(c(-c4ccccc4)[nH]c3c1)CCC2N (stereo not drawn) [Example 113, 5-amino-7-methyl-2-phenyl-1,3,4,5-tetrahydrobenz[cd]indole]
- IC50 [2]: 0.7 µg/mL (≈ 2.67 µM)

Structure (SMILES): NC1CCc2c(-c3ccccc3)[nH]c3ccc(O)c1c23 (stereo not drawn) [Example 174, 5-amino-6-hydroxy-2-phenyl-1,3,4,5-tetrahydrobenz[cd]indole]
- inhibition at 0.3 µg/mL [3]: 64%
- IC50 [2]: 3.4 µg/mL (≈ 12.9 µM)

Structure (SMILES): Cn1c(-c2ccccc2)c2c3c(cccc31)C(NCC(=O)O)CC2 (stereo not drawn) [Example 223, 5-[N-(carboxymethyl)]amino-1-methyl-2-phenyl-1,3,4,5-tetrahydrobenz[cd]indole hydrochloride]
- inhibition at 3 µg/mL [3]: 81%

Structure (SMILES): COc1ccccc1-c1[nH]c2cccc3c2c1CCC3N (stereo not drawn) [Example 184, 5-amino-2-(2-methoxyphenyl)-1,3,4,5-tetrahydrobenz[cd]indole]
- IC50 [2]: 0.8 µg/mL (≈ 2.87 µM)

Structure (SMILES): Cn1c(-c2ccccc2)c2c3c(cccc31)C(N)CC2 (stereo not drawn) [Example 107, 5-amino-1-methyl-2-phenyl-1,3,4,5-tetrahydrobenz[cd]indole]
- IC50 [2]: 0.33 µg/mL (≈ 1.26 µM)
- Score of damage to hippocampus CA1 ([1]; 10 mg/kg, ischemic control 2.9 ± 0.3, mean ± standard error (Table 3-1)): 0.5 ± 0.5

Structure (SMILES): NC1CCc2c(-c3ccccc3O)[nH]c3cccc1c23 (stereo not drawn) [Example 185, 5-amino-2-(2-hydroxyphenyl)-1,3,4,5-tetrahydrobenz[cd]indole]
- inhibition at 0.3 µg/mL [3]: 100%

Structure (SMILES): c1ccc(-c2[nH]c3cccc4c3c2CCC4N2CCCCC2)cc1 (stereo not drawn) [Example 151, 2-phenyl-5-piperidino-1,3,4,5-tetrahydrobenz[cd]indole]
- inhibition at 3 µg/mL [3]: 98%

Structure (SMILES): COC(=O)C1CCN(C2CCc3c(-c4ccccc4)[nH]c4cccc2c34)CC1.Cl (stereo not drawn) [Example 225, 5-(4-methoxycarbonylpiperidino)-2-phenyl-1,3,4,5-tetrahydrobenz[cd]indole hydrochloride]
- IC50 [2]: 2.2 µg/mL

Structure (SMILES): NC1CCc2c(-c3ccc(Cl)cc3)[nH]c3c(Cl)ccc1c23 (stereo not drawn) [Example 103, 5-amino-8-chloro-2-(4-chlorophenyl)-1,3,4,5-tetrahydrobenz[cd]indole]
- inhibition at 0.3 µg/mL [3]: 56%

Structure (SMILES): O=C(O)C1=CC(=C(c2ccc(O)c(C(=O)O)c2)c2ccc(O)c(C(=O)O)c2)C=CC1=O [aurin tricarboxylic acid, reference compound]
- suppression of death of neurons under the serum-free condition (in words) [3]: suppressed

Structure (SMILES): OC1CCN(C2CCc3c(-c4ccccc4)[nH]c4cccc2c34)CC1 (stereo not drawn) [Example 216, 5-(4-hydroxypiperidino)-2-phenyl-1,3,4,5-tetrahydrobenz[cd]indole]
- inhibition at 1 µg/mL [3]: 75%

Structure (SMILES): C[C@@H]1C[C@@H]([C@H](O)CC2CC(=O)NC(=O)C2)C(=O)[C@@H](C)C1 [cycloheximide, reference compound]
- suppression of death of neurons under the serum-free condition (in words) [3]: suppressed

Structure (SMILES): COc1ccc2[nH]c(-c3ccccc3)c3c2c1C(N)CC3 (stereo not drawn) [Example 110, 5-amino-6-methoxy-2-phenyl-1,3,4,5-tetrahydrobenz[cd]indole]
- IC50 [2]: 1.8 µg/mL (≈ 6.47 µM)

Structure (SMILES): NC1CCc2c(-c3ccccc3)[nH]c3ccc(Br)c1c23 (stereo not drawn) [Example 87, 5-amino-6-bromo-2-phenyl-1,3,4,5-tetrahydrobenz[cd]indole]
- inhibition at 3 µg/mL [3]: 84%
- Score of damage to hippocampus CA1 ([1]; 2 mg/kg, ischemic control 2.9 ± 0.3, mean ± standard error (Table 3-1)): 1.9 ± 0.6

Structure (SMILES): CNC1CCc2c(-c3ccccc3)[nH]c3cccc1c23 (stereo not drawn) [Example 130, 5-(N-methylamino)-2-phenyl-1,3,4,5-tetrahydrobenz[cd]indole]
- inhibition at 1 µg/mL [3]: 76%
- Score of damage to hippocampus CA1 ([1]; 5 mg/kg, ischemic control 2.9 ± 0.3, mean ± standard error (Table 3-1)): 1.9 ± 0.1

Structure (SMILES): CCOC(=O)CNC1CCc2c(-c3ccccc3)n(C)c3cccc1c23 (stereo not drawn) [Example 244, 5-[N-(ethoxycarbonylmethyl)]amino-1-methyl-2-phenyl-1,3,4,5-tetrahydrobenz[cd]indole hydrochloride]
- inhibition at 3 µg/mL [3]: 57%

Structure (SMILES): NC1CCc2c(-c3ccc(F)cc3)[nH]c3cccc1c23 (stereo not drawn) [Example 95, 5-amino-2-(4-fluorophenyl)-1,3,4,5-tetrahydrobenz[cd]indole]
- IC50 [2]: 3.1 µg/mL (≈ 11.6 µM)

Structure (SMILES): NC1CCc2c(-c3ccc(Cl)cc3)[nH]c3cccc1c23 (stereo not drawn) [Example 96, 5-amino-2-(4-chlorophenyl)-1,3,4,5-tetrahydrobenz[cd]indole]
- inhibition at 1 µg/mL [3]: 37%

Structure (SMILES): CCCN(CCC)C1CCc2c(-c3ccccc3)[nH]c3cccc1c23 (stereo not drawn) [Example 150, 5-(N,N-dipropylamino)-2-phenyl-1,3,4,5-tetrahydrobenz[cd]indole]
- IC50 [2]: 1.2 µg/mL (≈ 3.61 µM)
